Assay results published in patent US20250296960A1, “PEPTIDE COMPOSITIONS AND METHODS OF USE THEREOF” (priority 2022, published 2025).
Where two headings read alike, the source gives them in different places. Numbered stars: 1 amine (or outer) side, 2 acyl side, 3 side chain; on linkers, the order of the positions; unused ones are H or OH. Square brackets hold non-standard residues; d marks the D form. Side chains are listed from the residue outwards. Peptide text beside a SMILES is read from it. * marks the point of attachment. Biotin = O=C1N[C@H]2[C@H](CS[C@H]2CCCCC(=O)*)N1; C18 diacid = O=C(O)CCCCCCCCCCCCCCCCC(=O)*; γGlu = O=C(O)[C@H](CCC(=O)[*:2])N[*:1]; AEEA = NCCOCCOCC(=O)O; Aib = CC(C)(N)C(=O)O

Assays:
[1] = In vitro enzymatic stability against FaSSIF/P (pancreatin in FaSSIF, pH 6.5); assay type: in vitro ADME; settings: simulated gi fluid, pH 6.5, Half-life (min)
Protocol: This study was conducted to determine the enzymatic stability of SEQ ID NOs. 77, 86, 87, 89, 90, and 91 after biotinylation in artificial intestinal environment. The test samples were prepared by mixing stock solutions of peptide and pancreatin dissolved in FaSSIF solution (pH 6.5) in a weight ratio of 25:1. The test samples were incubated at 37° C. for 120 min. The sampling from test samples was proceeded at the predetermined time points (10, 30, 60, and 120 min) and stopped by 10% TFA solution.
(§1) Analytical HPLC was performed to determine the remaining amount on an ACQUITY Premier system (Waters, USA) with an ACQUITY CSH C18 column (Waters, USA) at 35° C. using 0.1% TFA in water and acetonitrile. The remaining amount was determined as a percentage of the peak area at the sampling time point relative to the peak area of the initial sample.
For the stability against FaSSIF/P, the test samples were prepared by mixing stock solutions of peptide and pancreatin dissolved in FaSSIF solution (pH 6.5) in a weight ratio of 19:1. The test samples were incubated at 37° C. for 120 min. The sampling from test samples was proceeded at the predetermined time points (10, 30, 60, and 120 min) and stopped by 10% TFA solution.

[2] = rat, in vivo, iv
Protocol: This study was conducted to evaluate the PK profile of SEQ ID NOs. 77, 102, and 103 and compare the PK profile by the different lipidated structure of peptides in rat plasma by IV administration. SEQ ID NOs. The peptides were delivered at 0.02% PS80 in PBS and dosing volume was 2.5 mL/kg.
The animals were not fasted prior to dosing. 0.2-0.4 mL of whole blood was taken from vein at each time point (0.167, 0.5, 1, 2, 4, 6, 8, 24, and 48 hr after administration) and transferred into the heparin coated tube.
The resulting plasma of 0.1-0.2 mL obtained by centrifugation of the blood samples was transferred into the tube and stored at −70° C. until analysis. The concentrations of peptides in plasma were determined by LC-MS/MS analysis.

[3] = assay type: in vitro ADME; settings: pH 7.8
Protocol: For the stability against trypsin, the test samples were prepared by mixing stock solutions of peptide and trypsin dissolved in 50 mM PBS (pH 7.8) containing 0.02% PS80 in a weight ratio of 10:1. The test samples were incubated at 37° C. for 180 min. The sampling from test samples was proceeded at the predetermined time points (10, 30, 60, 90, 120, and 180 min) and stopped by 10% TFA solution.
as §1

human GCGR = molecular target: T1, human GCGR (Homo sapiens, UniProt P47871); experiment: cAMP assay (HitHunter cAMP) in GCGR-expressing CHO-K1 cells (GCGR+ cells); assay type: cell-based; settings: Table 31
T1 construct: host or cells: CHO-K1
How it was run: (§2)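 CHO-K1 cells expressing each receptor were plated overnight, then treated with peptide in cAMP assay buffer for 30 min at 37 °C. cAMP was detected by antibody plus detection solution (1 h) and Solution A (3 h), both at room temperature in the dark. Luminescence was the read-out.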

[4] = Body weight loss in high fat diet (HFD) mice, 2 weeks; assay type: in vivo; settings: 20 nmol/kg s.c. Q2D
Protocol: This study was conducted to confirm the body weight loss effect and select the peptides to be evaluated in high fat diet (HFD) treated mouse, which is widely used as experimental animal model in obesity and diabetes studies. SEQ ID NOs. The peptides were delivered at 0.02% PS80 in PBS and dosing volume was 10 mL/kg. Body weight changes, blood glucose, and food intake were monitored Q2D. Animals were fasted at least 4 hours prior to blood glucose measurement.

[5] = Intestinal absorption / PK after intraduodenal administration of oral formulation in rats, serum LC-MS/MS; settings: rat, in vivo
Protocol: This study was conducted to evaluate the intestinal absorption of peptides following enteral administration of oral pharmaceutical formulations. The pharmaceutical formulation was administered in a form of suspensions by intraduodenal (ID) injection in rats. SEQ ID_87, 89 and 90 was accurately weighed and dissolved in 10 mM PBS containing polysorbate 80 (pH 7.4, vehicle I). The mixture was vortexed for 5 min to get a clear solution. Then, 2.5 mL of vehicle was added to the mixture and vortexed for 30 min to get homogenous opaque suspension. The composition of Vehicle II was sodium chenodeoxycholate, and propyl gallate in polysorbate 80 in PBS. The animals were not fasted prior to dosing. 0.2˜ 0.4 mL of whole blood was taken from vein at each time point (0, 0.167, 0.5, 1, 2, 4, 8, 24, and 48 hrs after IV or ID administration). The collected whole blood was incubated at room temperature for 20 min and tubes were centrifugated at 13,000 rpm for 10 min at 4° C. The resulting serum 0.1˜ 0.2 mL was transferred into the tube and stored at −70° C. until analysis. The concentrations of peptides in serum were determined by LC-MS/MS analysis. PK parameters were analyzed by non-compartmental analysis using Phoenix WinNonlin 5.0.1. software (Pharsight Corporation, Mountain View, CA, USA).

human GIPR = molecular target: T2, human GIPR (Homo sapiens, UniProt P48546); experiment: cAMP assay (HitHunter cAMP) in GIPR-expressing CHO-K1 cells (GIPR+ cells); assay type: cell-based; settings: Table 31
T2 construct: host or cells: CHO-K1
T2 sequence (P48546 22-466): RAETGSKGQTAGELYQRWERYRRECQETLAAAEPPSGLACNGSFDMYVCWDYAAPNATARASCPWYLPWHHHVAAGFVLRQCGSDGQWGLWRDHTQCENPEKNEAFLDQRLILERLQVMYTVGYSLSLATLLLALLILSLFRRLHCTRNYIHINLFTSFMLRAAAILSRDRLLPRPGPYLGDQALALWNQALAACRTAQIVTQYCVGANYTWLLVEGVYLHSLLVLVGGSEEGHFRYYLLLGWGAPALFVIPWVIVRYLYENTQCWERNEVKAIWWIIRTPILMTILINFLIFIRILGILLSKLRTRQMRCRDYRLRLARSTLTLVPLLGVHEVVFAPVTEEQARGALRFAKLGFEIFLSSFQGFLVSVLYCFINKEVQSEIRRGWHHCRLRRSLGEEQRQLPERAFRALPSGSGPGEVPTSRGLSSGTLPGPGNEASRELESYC
How it was run: as §2

human GLP-1R = molecular target: T3, human GLP-1R (Homo sapiens, UniProt P43220); experiment: cAMP assay (HitHunter cAMP) in GLP-1R-expressing CHO-K1 cells (GLP-1R+ cells); assay type: cell-based; settings: Table 31
T3 construct: host or cells: CHO-K1
How it was run: as §2

T1 sequence (P47871 26-477): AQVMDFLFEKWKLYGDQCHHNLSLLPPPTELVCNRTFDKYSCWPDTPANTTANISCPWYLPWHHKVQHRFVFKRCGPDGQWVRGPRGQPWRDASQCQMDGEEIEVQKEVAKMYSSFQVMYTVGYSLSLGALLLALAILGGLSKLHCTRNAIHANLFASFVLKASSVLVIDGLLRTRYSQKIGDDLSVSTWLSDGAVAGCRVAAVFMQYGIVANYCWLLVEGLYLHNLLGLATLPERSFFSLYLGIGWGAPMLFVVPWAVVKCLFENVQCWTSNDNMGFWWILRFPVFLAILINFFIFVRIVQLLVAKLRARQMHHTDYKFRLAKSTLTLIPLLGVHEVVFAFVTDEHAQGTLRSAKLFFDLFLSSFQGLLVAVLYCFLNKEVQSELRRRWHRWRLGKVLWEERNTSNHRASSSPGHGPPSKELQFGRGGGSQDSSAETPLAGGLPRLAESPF
T3 sequence (P43220 24-463): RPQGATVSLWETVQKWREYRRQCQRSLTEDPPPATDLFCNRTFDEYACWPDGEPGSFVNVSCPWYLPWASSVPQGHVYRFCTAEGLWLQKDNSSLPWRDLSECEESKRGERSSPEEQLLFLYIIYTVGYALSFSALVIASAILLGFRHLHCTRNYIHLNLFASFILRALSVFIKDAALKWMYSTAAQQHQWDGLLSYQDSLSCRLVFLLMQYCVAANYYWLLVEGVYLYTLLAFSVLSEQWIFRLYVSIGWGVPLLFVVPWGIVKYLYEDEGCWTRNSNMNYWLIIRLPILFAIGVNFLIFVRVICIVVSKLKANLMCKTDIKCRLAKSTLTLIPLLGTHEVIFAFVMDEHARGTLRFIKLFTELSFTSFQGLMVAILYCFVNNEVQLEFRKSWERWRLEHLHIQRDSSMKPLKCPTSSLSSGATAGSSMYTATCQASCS

Compound	half-life [1] [h]	half-life ([1]; FaSSIF/P) [h]	PK parameter values (half-life and AUCinf/dose), comparison in words [2]	AUCinf/dose ([2]; 100 nmol/kg) [kg·h/L]	half-life ([2]; 100 nmol/kg) [h]	half-life [3] [h]	Ratio vs. GLP-1R, GCGR (human GCGR)	Relative % to native ligand, GCGR (human GCGR) [%]	body weight loss effect compared to SEQ ID NO. 77, in words [4]	AUC(0-inf) [5] [ng·h/mL]	Cmax [5] [ng/mL]	half-life [5] [h]	time at which Cmax was reached [5] [h]	Ratio vs. GLP-1R, GIPR (human GIPR)	Relative % to native ligand, GIPR (human GIPR) [%]	Ratio vs. GLP-1R, GLP-1R (human GLP-1R)	Relative % to native ligand, GLP-1R (human GLP-1R) [%]
CC[C@H](C)[C@H](NC(=O)[C@H](CC(C)C)NC(=O)[C@H](Cc1c[nH]c2ccccc12)NC(=O)[C@H](CC(C)C)NC(=O)[C@@H](NC(=O)[C@H](Cc1ccccc1)NC(=O)[C@H](CC(=O)O)NC(=O)CNC(=O)[C@H](C)NC(=O)[C@H](Cc1c[nH]c2ccccc12)NC(=O)[C@@H]1CCCN1C(=O)CNC(=O)[C@H](CC(=O)O)NC(=O)[C@H](CC(C)C)NC(=O)[C@H](Cc1ccc(O)cc1)NC(=O)[C@H](Cc1c[nH]c2ccccc12)NC(=O)[C@H](CO)NC(=O)[C@H](CCCCN)NC(=O)[C@H](CC(=O)O)NC(=O)[C@H](CO)NC(=O)[C@@H](NC(=O)[C@H](Cc1ccccc1)NC(=O)[C@@H](NC(=O)CNC(=O)[C@H](CCC(N)=O)NC(=O)C(C)(C)NC(=O)[C@@H](N)Cc1c[nH]cn1)[C@@H](C)O)[C@@H](C)O)C(C)C)C(=O)N[C@@H](CCC(=O)O)C(=O)NCC(=O)NCC(=O)N1CCC[C@H]1C(=O)N[C@@H](CO)C(=O)N[C@@H](CO)C(=O)NCC(=O)N[C@@H](C)C(=O)N1CCC[C@H]1C(=O)N1CCC[C@H]1C(=O)N1CCC[C@H]1C(=O)N[C@@H](CO)C(=O)N[C@@H](CS)C(=O)O [compound 77, HAibQGT FTSDKSWYLDGPWAGDFVLWLIEGGPSSGAPPPSC] (H-H[Aib]QGTFTSDKSWYLDGPWAGDFVLWLIEGGPSSGAPPPSC-OH; N-terminus and C-terminus assumed)	0.657	0.615	significantly low	156.76 ± 27.16	7.11 ± 0.4	1.54	–	–	–	–	–	–	–	–	–	–	–
CSCC[C@H](NC(=O)[C@H](CCCCNC(=O)CCCC[C@@H]1SC[C@@H]2NC(=O)N[C@@H]21)NC(=O)[C@H](Cc1ccc(O)cc1)NC(=O)[C@H](CC(=O)O)NC(=O)[C@H](CC(C)C)NC(=O)[C@H](CC(C)C)NC(=O)[C@H](CCCCNC(=O)COCCOCCNC(=O)COCCOCCNC(=O)CC[C@H](NC(=O)CCCCCCCCCCCCCCCCC(=O)O)C(=O)O)NC(=O)[C@H](CO)NC(=O)[C@H](Cc1ccc(O)cc1)NC(=O)[C@H](CC(=O)O)NC(=O)[C@H](CO)NC(=O)[C@@H](NC(=O)[C@H](Cc1ccccc1)NC(=O)[C@@H](NC(=O)CNC(=O)[C@H](CCC(N)=O)NC(=O)C(C)(C)NC(=O)[C@@H](N)Cc1ccc(O)cc1)[C@@H](C)O)[C@@H](C)O)C(=O)N[C@@H](CCC(N)=O)C(=O)N[C@@H](CCCNC(=N)N)C(=O)N[C@@H](CC(=O)O)C(=O)N[C@@H](Cc1ccccc1)C(=O)N[C@H](C(=O)N[C@@H](CCC(N)=O)C(=O)N[C@@H](Cc1c[nH]c2ccccc12)C(=O)N[C@@H](CC(C)C)C(=O)N[C@@H](CC(C)C)C(=O)N[C@@H](CCC(=O)O)C(=O)NCC(=O)NCC(=O)N1CCC[C@H]1C(=O)N[C@@H](CO)C(=O)N[C@@H](CO)C(=O)NCC(=O)N[C@@H](C)C(=O)N1CCC[C@H]1C(=O)N1CCC[C@H]1C(=O)N1CCC[C@H]1C(=O)N[C@@H](CO)C(N)=O)C(C)C [compound 87] (H-Y[Aib]QGTFTSDYSK([AEEA-AEEA-γGlu-C18 diacid])LLDYK(Biotin)MQRDFVQWLLEGGPSSGAPPPS-NH2; N-terminus and C-terminus assumed)	0.273	–	–	–	–	–	60	66	inferior	1860	290	6.17	0.25	281	308	100	110
